In article PMC2864230 (Nature chemical biology, 2009):

Key:
[1] = molecular target: T1, ERα (Homo sapiens, UniProt P03372); assay: PI3K activation; assay type: cell-based; settings: ERα-transfected COS7 cells; concentrations 100-fold greater than required to inhibit GPR30
T1 sequence (P03372 1-595): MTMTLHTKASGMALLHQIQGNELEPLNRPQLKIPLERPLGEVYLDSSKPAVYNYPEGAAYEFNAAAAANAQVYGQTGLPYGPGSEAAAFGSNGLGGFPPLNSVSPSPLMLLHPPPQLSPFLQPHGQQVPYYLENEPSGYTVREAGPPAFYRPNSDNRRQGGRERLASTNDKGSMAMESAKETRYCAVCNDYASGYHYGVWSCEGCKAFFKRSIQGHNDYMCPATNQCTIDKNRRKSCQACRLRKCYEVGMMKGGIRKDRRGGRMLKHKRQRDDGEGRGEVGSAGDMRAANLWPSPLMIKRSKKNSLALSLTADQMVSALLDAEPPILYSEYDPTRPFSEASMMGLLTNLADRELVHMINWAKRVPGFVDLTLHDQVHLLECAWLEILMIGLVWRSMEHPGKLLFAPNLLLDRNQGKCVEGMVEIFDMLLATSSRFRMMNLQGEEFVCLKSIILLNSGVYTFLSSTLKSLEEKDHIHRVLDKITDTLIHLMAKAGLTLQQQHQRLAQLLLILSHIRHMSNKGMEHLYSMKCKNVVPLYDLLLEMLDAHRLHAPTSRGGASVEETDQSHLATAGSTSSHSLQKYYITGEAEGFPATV

[2] = molecular target: T2, GPR30 (Homo sapiens, UniProt Q99527); assay: Intracellular calcium mobilization in indo1-AM-loaded SKBr3 cells; assay type: cell-based; settings: G15 1 μM
[3] = molecular target: ERβ (Homo sapiens, UniProt Q92731); assay: PI3K activation; assay type: cell-based; settings: ERβ-transfected COS7 cells; concentrations 100-fold greater than required to inhibit GPR30
[4] = molecular target: T1, ERα; assay: Competitive binding with E2-Alexa633 in COS7 cells transfected with ERα-GFP
[5] = molecular target: T2, GPR30; assay: PI3K activation; assay type: cell-based; settings: SKBr3 cells
[6] = system: adult male ICR mice; assay: Mouse depression assay; assay type: in vivo; settings: intraperitoneal
[7] = system: uterine epithelia; assay: Mouse uterine estrogenicity assay; assay type: in vivo; settings: G15 plus E2 (0.74 nmol); dose-dependent, maximal at 10-fold molar excess of G15
[8] = molecular target: T2, GPR30; assay: PI3K activation; assay type: cell-based; settings: GPR30-transfected COS7 cells

T2 sequence (Q99527 whole entry): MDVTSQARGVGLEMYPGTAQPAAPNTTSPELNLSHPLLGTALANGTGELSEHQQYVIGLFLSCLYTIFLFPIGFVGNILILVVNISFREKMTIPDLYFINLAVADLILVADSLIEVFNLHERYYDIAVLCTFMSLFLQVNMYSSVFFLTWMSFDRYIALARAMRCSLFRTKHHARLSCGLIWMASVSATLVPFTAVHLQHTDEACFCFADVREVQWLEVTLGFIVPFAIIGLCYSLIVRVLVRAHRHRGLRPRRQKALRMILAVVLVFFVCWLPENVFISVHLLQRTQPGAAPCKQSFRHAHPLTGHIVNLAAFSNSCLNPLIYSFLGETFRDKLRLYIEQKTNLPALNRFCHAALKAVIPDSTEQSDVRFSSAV
ERβ, sequence (Q92731 whole entry, species assumed): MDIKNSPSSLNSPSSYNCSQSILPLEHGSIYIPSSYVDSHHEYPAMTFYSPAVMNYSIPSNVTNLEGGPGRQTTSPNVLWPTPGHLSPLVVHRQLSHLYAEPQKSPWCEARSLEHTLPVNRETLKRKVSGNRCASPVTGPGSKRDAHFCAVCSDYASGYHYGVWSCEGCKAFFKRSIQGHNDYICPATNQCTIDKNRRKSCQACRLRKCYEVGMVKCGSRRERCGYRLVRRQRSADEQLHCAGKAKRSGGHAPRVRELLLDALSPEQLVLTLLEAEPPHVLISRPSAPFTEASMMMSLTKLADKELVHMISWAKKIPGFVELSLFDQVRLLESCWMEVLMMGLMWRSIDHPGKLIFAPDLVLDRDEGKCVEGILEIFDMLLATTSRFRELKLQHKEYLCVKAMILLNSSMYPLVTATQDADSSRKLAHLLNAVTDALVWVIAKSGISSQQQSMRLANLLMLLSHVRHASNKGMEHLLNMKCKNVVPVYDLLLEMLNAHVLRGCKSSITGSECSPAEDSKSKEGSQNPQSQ

Brc1cc2c(cc1[C@@H]1Nc3ccccc3[C@@H]3C=CC[C@@H]31)OCO2 (racemic) [G15, 4-(6-Bromo-benzo[1,3]dioxol-5-yl)-3a,4,5,9b-tetrahydro-3H-cyclopenta[c]quinoline]
effect on estrogen-mediated PI3K response [1]: no effect
mobilization of intracellular calcium by compound alone ([2]; G-1 200 nM, E2 100 nM): incapable of inducing a response
effect of G15 exposure on subsequent calcium response to G-1 or estrogen ([2]; then G-1 200 nM or E2 100 nM): substantially reduced the response
effect on estrogen-mediated PI3K response [3]: no effect
Ki [4]: > 10 µM
inhibition of estrogen and G-1 stimulation of PI3K [5]: able to inhibit
effect of G15 pretreatment on the G-1 effect on immobility time ([6]; G15 10 nmol/mouse + G-1 1 nmol/mouse): significantly attenuated
effect of G15 pretreatment on the E2 effect on immobility time ([6]; G15 25 nmol/mouse + soluble E2 5 mg/kg): significantly attenuated
reduction of E2-induced uterine epithelial proliferation [7]: approximately 50%
inhibition of G-1-mediated activation of PI3K [8]: capable of inhibiting
inhibition of estrogen-mediated PI3K response [8]: effectively blocked
